Experimental data: patent US8106055B2, “Substituted amide compounds” (Gruenenthal GmbH, priority 2007, dated 2012)

Key:
human μ opiate receptor = molecular target: T1, human μ opiate receptor (Homo sapiens, UniProt P35372); assay: Affinity for the human μ opiate receptor ([3H]-naloxone displacement, CHO-K1 receptor membrane preparation, SPA); format: binding; details: test concentration of 1 μM
T1 construct: purchased PerkinElmer Life Sciences, Zaventem, Belgium RB-HOM; host or cells: CHO-K1 cells (membrane preparation)
Outline: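 Test compounds, 1 nmol/l [3H]-naloxone and CHO-K1 membranes bearing the human μ opiate receptor are combined with WGA-SPA beads. After 90 minutes at room temperature, plates are centrifuged and radioactivity counted. Specific-binding inhibition at 1 μmol/l is given in percent.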

[1] = molecular target: T2, bradykinin 1 receptor (B1R) of the rat (Rattus norvegicus, UniProt P97583); assay: Functional investigation on the rat bradykinin 1 receptor (B1R), Ca2+ FLIPR assay in CHO K1 rB1R cells; format: cell-based; details: B1R antagonism rat; test substance 10 μM; Ca2+ FLIPR, CHO K1 rB1R cells
T2 construct: expressed in transfected cells; host or cells: CHO K1 cells
T2 sequence (P97583 1-337): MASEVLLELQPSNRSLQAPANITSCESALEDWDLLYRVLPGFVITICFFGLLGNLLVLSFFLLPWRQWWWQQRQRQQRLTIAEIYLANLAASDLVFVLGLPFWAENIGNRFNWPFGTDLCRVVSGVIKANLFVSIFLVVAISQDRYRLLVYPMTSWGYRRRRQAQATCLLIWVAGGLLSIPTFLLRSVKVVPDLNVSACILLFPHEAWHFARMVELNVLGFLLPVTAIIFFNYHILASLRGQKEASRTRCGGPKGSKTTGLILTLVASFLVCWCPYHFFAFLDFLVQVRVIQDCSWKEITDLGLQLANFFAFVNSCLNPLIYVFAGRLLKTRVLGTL
Outline: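 Fluo-4 Ca2+ readout, peak fluorescence. Stable CHO K1 transfectants; compound pre-incubated 10-20 min, then EC80 agonist—Lys-Des-Arg9-BK for hB1R, Des-Arg9-BK for rB1R. % inhibition vs maximal inhibition; IC50 from multiple concentrations, duplicate/triplicate, ≥2 independent runs.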

T1 sequence (P35372 whole entry): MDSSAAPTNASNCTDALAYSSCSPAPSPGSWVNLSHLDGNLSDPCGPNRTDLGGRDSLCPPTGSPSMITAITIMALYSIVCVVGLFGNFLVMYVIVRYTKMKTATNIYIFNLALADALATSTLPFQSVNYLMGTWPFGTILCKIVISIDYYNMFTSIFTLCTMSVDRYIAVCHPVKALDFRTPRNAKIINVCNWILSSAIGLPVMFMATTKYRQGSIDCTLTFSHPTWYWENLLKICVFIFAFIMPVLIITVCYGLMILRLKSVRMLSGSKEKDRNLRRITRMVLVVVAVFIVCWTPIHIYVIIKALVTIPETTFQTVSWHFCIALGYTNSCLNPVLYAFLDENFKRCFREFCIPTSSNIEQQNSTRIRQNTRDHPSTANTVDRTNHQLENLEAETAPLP

## COc1cc(C)c(S(=O)(=O)N2CCC(CCOCC(=O)NCC3CCC(C(CCc4ccccc4)N(C)C)CC3)CC2)c(C)c1C (centres unmarked) [Example 521]
Human μ opiate receptor
  μ (binding on the μ opioid receptor, % inhibition): 39%
[1]
  B1R Ant. r [10 μM] % Inhibition: 11%

## CN(C)C(c1ccc(F)cc1)C1CCC(CNC(=O)COC2CCN(S(=O)(=O)c3ccc(F)cc3)C2)CC1 (centres unmarked) [Example 522]
Human μ opiate receptor
  μ (binding on the μ opioid receptor, % inhibition): 35%
[1]
  B1R Ant. r [10 μM] % Inhibition: 12%

## COc1cc(C)c(S(=O)(=O)N(CCOCC(=O)NC2CCC(C(c3ccc(F)cc3)N(C)C)CC2)Cc2ccccc2)c(C)c1C (centres unmarked) [Example 523]
Human μ opiate receptor
  μ (binding on the μ opioid receptor, % inhibition): 34%
[1]
  B1R Ant. r [10 μM] % Inhibition: 26%

## COc1ccc(S(=O)(=O)N2CCCCC2COCC(=O)NC2CCC(C(c3ccc(F)cc3)N(C)C)CC2)c(OC)c1 (centres unmarked) [Example 524]
Human μ opiate receptor
  μ (binding on the μ opioid receptor, % inhibition): 33%
[1]
  B1R Ant. r [10 μM] % Inhibition: 26%

## COc1cc(C)c(S(=O)(=O)N(C)CCOCC(=O)NCC2CCC(C(CCc3ccccc3)N(C)C)CC2)c(C)c1 (centres unmarked) [Example 525]
Human μ opiate receptor
  μ (binding on the μ opioid receptor, % inhibition): 31%
[1]
  B1R Ant. r [10 μM] % Inhibition: 93%

## CN(C)C(CCc1ccccc1)C1CCC(CNC(=O)COCCN2CCN(S(=O)(=O)c3ccccc3)CC2)CC1 (centres unmarked) [Example 526]
Human μ opiate receptor
  μ (binding on the μ opioid receptor, % inhibition): 32%
[1]
  B1R Ant. r [10 μM] % Inhibition: −30%

## COc1cc(C)c(S(=O)(=O)N2CCC(OCC(=O)NCC3CCC(C(c4ccc(F)cc4)N(C)C)CC3)CC2)c(C)c1C (centres unmarked) [Example 527]
Human μ opiate receptor
  μ (binding on the μ opioid receptor, % inhibition): 38%
[1]
  B1R Ant. r [10 μM] % Inhibition: 68%

## COc1cc(C)c(S(=O)(=O)N2CCN(CCOCC(=O)NCC3CCC(C(CCc4ccccc4)N(C)C)CC3)CC2)c(C)c1C (centres unmarked) [Example 528]
Human μ opiate receptor
  μ (binding on the μ opioid receptor, % inhibition): 34%
[1]
  B1R Ant. r [10 μM] % Inhibition: 14%

## CN(C)C(c1ccc(F)cc1)C1CCC(CCNC(=O)COC2CCN(S(=O)(=O)c3ccccc3)C2)CC1 (centres unmarked) [Example 530]
Human μ opiate receptor
  μ (binding on the μ opioid receptor, % inhibition): 26%
[1]
  B1R Ant. r [10 μM] % Inhibition: 27%

## CN(C)C(c1ccc(Cl)cc1)C1CCC(CCNC(=O)COCCC2CCN(S(=O)(=O)c3ccccc3)CC2)CC1 (centres unmarked) [Example 531]
Human μ opiate receptor
  μ (binding on the μ opioid receptor, % inhibition): 23%
[1]
  B1R Ant. r [10 μM] % Inhibition: −1%

## CN(C)C(c1ccc(F)cc1)C1CCC(CNC(=O)COC2CCN(S(=O)(=O)c3ccccc3)C2)CC1 (centres unmarked) [Example 532]
Human μ opiate receptor
  μ (binding on the μ opioid receptor, % inhibition): 35%
[1]
  B1R Ant. r [10 μM] % Inhibition: −14%

## CN(C)C(CCc1ccccc1)C1CCC(CNC(=O)COCCN(Cc2ccccc2)S(=O)(=O)c2ccccc2)CC1 (centres unmarked) [Example 533]
Human μ opiate receptor
  μ (binding on the μ opioid receptor, % inhibition): 28%
[1]
  B1R Ant. r [10 μM] % Inhibition: 12%

## COc1ccc(S(=O)(=O)N2CCCCC2CCOCC(=O)NCC2CCC(C(CCc3ccccc3)N(C)C)CC2)cc1 (centres unmarked) [Example 535]
Human μ opiate receptor
  μ (binding on the μ opioid receptor, % inhibition): 34%
[1]
  B1R Ant. r [10 μM] % Inhibition: 72%

## CCN(CCOCC(=O)NCC1CCC(C(CCc2ccccc2)N(C)C)CC1)S(=O)(=O)c1c(C)cc(OC)c(C)c1C (centres unmarked) [Example 536]
Human μ opiate receptor
  μ (binding on the μ opioid receptor, % inhibition): 43%
[1]
  B1R Ant. r [10 μM] % Inhibition: 95%

## Cc1ccc(S(=O)(=O)N2CCC(OCC(=O)NCC3CCC(C(CCc4ccccc4)N(C)C)CC3)C2)cc1 (centres unmarked) [Example 538]
Human μ opiate receptor
  μ (binding on the μ opioid receptor, % inhibition): 25%
[1]
  B1R Ant. r [10 μM] % Inhibition: 5%

## CN(C)C(CCc1ccccc1)C1CCC(CNC(=O)COCCN(C)S(=O)(=O)c2ccc(F)cc2)CC1 (centres unmarked) [Example 539]
Human μ opiate receptor
  μ (binding on the μ opioid receptor, % inhibition): 32%
[1]
  B1R Ant. r [10 μM] % Inhibition: 32%

## COc1ccc(S(=O)(=O)N2CCCCC2COCC(=O)NCCC2CCC(C(c3ccc(Cl)cc3)N(C)C)CC2)cc1OC (centres unmarked) [Example 540]
Human μ opiate receptor
  μ (binding on the μ opioid receptor, % inhibition): 23%
[1]
  B1R Ant. r [10 μM] % Inhibition: 19%

## COc1cc(C)c(S(=O)(=O)N2CCC(OCC(=O)NCC3CCC(C(c4ccc(F)cc4)N(C)C)CC3)C2)c(C)c1 (centres unmarked) [Example 541]
Human μ opiate receptor
  μ (binding on the μ opioid receptor, % inhibition): 34%
[1]
  B1R Ant. r [10 μM] % Inhibition: 104%

## COc1cc(C)c(S(=O)(=O)N(CCOCC(=O)NCC2CCC(C(CCc3ccccc3)N(C)C)CC2)Cc2ccccc2)c(C)c1 (centres unmarked) [Example 542]
Human μ opiate receptor
  μ (binding on the μ opioid receptor, % inhibition): 33%
[1]
  B1R Ant. r [10 μM] % Inhibition: 45%
